Tested on: MAGI cells cytotoxicity, 2% serum, % cell control
Experiment: viability reduction in MAGI cells – cell-based, CCR5-tropic MAGI assay, 2% serum, set 4, cytotoxicity control for HIV-1 antiviral lead project, dose response (AID 504576)

Row | Compound | CC50
1 | Cc1c2c(=O)n(-c3nc4ccccc4s3)nc-2cc(O)n1Cc1ccccc1Cl | 32.9 µM
2 | Cc1c2c(=O)n(-c3nc4ccccc4s3)nc-2cc(O)n1CCc1cccs1 | 74.8 µM
3 | Cc1c2c(=O)n(-c3nc4ccccc4s3)nc-2cc(O)n1CCc1ccc(O)cc1 | 20.5 µM
4 | COc1ccc(CCn2c(O)cc3nn(-c4nc5ccccc5s4)c(=O)c-3c2C)cc1 | 13.8 µM
5 | Cc1c2c(=O)n(-c3nc4ccccc4s3)nc-2cc(O)n1CCC(C)C | 65 µM
6 | COc1ccccc1Cn1c(O)cc2nn(-c3nc4ccccc4s3)c(=O)c-2c1C | 43.2 µM
7 | COc1ccc(Cn2c(O)cc3nn(-c4nc5ccccc5s4)c(=O)c-3c2C)cc1 | 41.1 µM

From PubChem BioAssay AID504576 (Southern Research Specialized Biocontainment Screening …, 2011)
